Test system: Vγ9Vδ2 T cells
Assay: Activation of Vγ9Vδ2 T cells (TNF-α, flow cytometry) by HepG2 liver carcinoma cells co-cultured with expanded PBMC
Format: cell-based, human
Procedure: HepG2 cells were transduced with LV-vector, LV-BTN3A3 (R381H), or LV-shFDPS-BTN3A3 (R381H). Three days after transduction, cells were treated with or without 1 μM zoledronic acid. After 24 hours, the transduced HepG2 cells were co-cultured with 5×10^5 PBMC cells and IL-2 in a round bottom 96 well plate for 4 hours. The PBMC cells were pre-stimulated with zoledronic acid and IL-2 for 11 days to expand Vγ9Vδ2 T cells. After staining for Vγ9Vδ2 and TNF-α using fluorophore-conjugated anti TCR-Vδ2 and anti-TNF-α antibody, cells were analyzed via flow cytometry. Live cells were gated, and Vδ2+ and TNF-α+cells were selected on a dot blot. The activated cytotoxic Vγ9Vδ2 T cells appeared in the upper right quadrant of flow cytograms. Without zoledronic acid, the percent of TNF-α expressing Vγ9Vδ2 T cells was 0.6% with LV-vector, 9.5% with BTN3A3 (R381H), and 13.2% with the combination of LV-shFDPS-BTN3A3 (R381H). With zoledronic acid, the percent of TNF-α expressing Vγ9Vδ2 T cells was 7.2% with LV-vector, 17.8% with BTN3A3 (R381H), and 30.1% with the combination of LV-shFDPS-BTN3A3 (R381H).
HepG2 cells were transduced with LV-shFDPS or LV-shFDPS-IL-2. Three days after transduction, cells were treated with or without 1 μM zoledronic acid. After 24 hours, the transduced HepG2 cells were co-cultured with 5×10^5 PBMC cells and with or without IL-2 in a round bottom 96 well plate for 4 hours. The PBMC cells were pre-stimulated with zoledronic acid and IL-2 for 11 days to expand Vγ9Vδ2 T cells. After staining for Vγ9Vδ2 and TNF-α using fluorophore-conjugated anti TCR-Vδ2 and anti-TNF-α antibody, cells were analyzed via flow cytometry. Live cells were gated, and Vδ2+ and TNF-α+ cells were selected on a dot blot. The activated cytotoxic Vγ9Vδ2 T cells appeared in the upper right quadrant of flow cytograms. With only zoledronic acid, the percent of TNF-α expressing Vγ9Vδ2 T cells was 7.5% with LV-shFDPS and 20.1% with LV-shFDPS-IL-2. With zoledronic acid and IL-2, the percent of TNF-α expressing Vγ9Vδ2 T cells was 27.8% with LV-shFDPS and 24.7% with LV-shFDPS-IL-2.
HepG2 liver carcinoma cells were transduced with Lv-shFDPS, Lv-FDPS-IL-15 (expressing both shRNAFDPS and the human cytokine interleukin 15) or Lv-control and cultured for 72 hours. Zoledronic acid (1 μM) was added to (1) cells transduced with Lv-shFDPS, (2) cells transduced with Lv-FDPS-IL-15, and (3) HepG2 cells transduced with Lv-control. Treated cells were cultured for 24 hours. Lv-shFDPS transduced cells, Lv-FDPS-IL-15 transduced cells, and Lv-control transduced cells were co-cultured with PBMC enriched for Vγ9Vδ2 cells plus a protein transport inhibitor (BD GolgiStop) for 4 hours. After 4 hours of stimulation, cells were collected and labeled with Vδ2 phycoerythrin (PE) and TNFαallophycocyanin (APC), and the labeled cells were analyzed by flow cytometry.
HepG2 cells were transduced with LV-control or LV-FDPS shRNA #4 (SEQ ID NO: 4) or LV-GGPS1 shRNA #1 (SEQ ID NO: 70) for 3 days. Two days after transduction, cells were treated with or without 1 μM zoledronic acid. After 24 hours, the transduced HepG2 cells were co-cultured for 4 hours with 5×10^5 PBMC cells in a round bottom 96 well plate. The PBMC cells had been pre-stimulated with zoledronic acid plus IL-2 for at least 11 days to expand Vγ9Vδ2 T cells. After staining for Vγ9Vδ2 and TNF-α using fluorophore-conjugated anti TCR-Vδ2 and anti-TNF-α antibody, cells were analyzed via flow cytometry. Live cells were gated; Vδ2+ and TNF-α+ cells were identified on a dot blot. The activated cytotoxic Vγ9Vδ2 T cells appeared in the upper right quadrant of the flow cytograms. Without zoledronic acid, LV-control stimulated 0.36% of TNF-α expressing Vγ9Vδ2 T cells whereas LV-FDPS shRNA #4 (SEQ ID NO: 4) stimulated 0.9% and LV-GGPS1 #1 (SEQ ID NO: 70) shRNA stimulated 0.58%. […]

[1] = Example 26, FIG. 30, LV-FDPS shRNA #4 transduced HepG2 cells, drug 1 μM, 24 hours
[2] = Example 26, FIG. 30, LV-control transduced HepG2 cells, 1 μM, 24 hours, untreated 1.82%

SMILES | percent of TNF-α expressing Vγ9Vδ2 T cells [1] | percent of TNF-α expressing Vγ9Vδ2 T cells [2] | percent of TNF-α expressing Vγ9Vδ2 T cells (Example 4, LV-vector (control) transduced HepG2 cells, 1 μM zoledronic acid) | percent of TNF-α expressing Vγ9Vδ2 T cells (Example 20, LV-control transduced HepG2 cells, 1 μM zoledronic acid) | percent of TNF-α expressing Vγ9Vδ2 T cells (Example 26, FIG. 30, LV-FDPS shRNA #4 transduced HepG2 cells, drug 5 μM, 24 hours) | percent of TNF-α expressing Vγ9Vδ2 T cells (Example 26, FIG. 30, LV-control transduced HepG2 cells, 5 μM, 24 hours, untreated 1.82%)
COC(=O)[C@H](CCSC)NC(=O)c1ccc(NC[C@@H](N)CS)cc1-c1ccccc1 [FT1277] | 2.69% | 1.72% |  |  |  | 
O=P(O)(O)C(O)(Cn1ccnc1)P(=O)(O)O [zoledronic acid] | 50.8% | 3.02% | 7.2% | 6.88% |  | 
C=C(CC[C@]12O[C@H](C(=O)O)[C@@](O)(C(=O)O)[C@](C(=O)O)(O1)[C@H](OC(=O)/C=C/[C@@H](C)C[C@@H](C)CC)[C@H]2O)[C@@H](OC(C)=O)[C@H](C)Cc1ccccc1 [zaragozic acid] |  |  |  |  | 2.82% | 1.63%
